ChEMBL document CHEMBL3526076, “Species-dependent and receptor-selective action of bilobalide on the function of constitutive androstane receptor and pregnane X receptor” (Drug Metab Dispos, 2012)

What was measured:
[1] = molecular target: T1, Nuclear receptor subfamily 1 group I member 2 (Rattus norvegicus, UniProt Q9R1A7); experiment: Activation of rat PXR expressed in human HepG2 cells coexpressing CYP3A4 at 0.1 to 100 uM after 24 hrs by dual luciferase reporter gene assay; format: ADME, cell-based; settings: hepg2, 24 h
T1 sequence (Q9R1A7 whole entry): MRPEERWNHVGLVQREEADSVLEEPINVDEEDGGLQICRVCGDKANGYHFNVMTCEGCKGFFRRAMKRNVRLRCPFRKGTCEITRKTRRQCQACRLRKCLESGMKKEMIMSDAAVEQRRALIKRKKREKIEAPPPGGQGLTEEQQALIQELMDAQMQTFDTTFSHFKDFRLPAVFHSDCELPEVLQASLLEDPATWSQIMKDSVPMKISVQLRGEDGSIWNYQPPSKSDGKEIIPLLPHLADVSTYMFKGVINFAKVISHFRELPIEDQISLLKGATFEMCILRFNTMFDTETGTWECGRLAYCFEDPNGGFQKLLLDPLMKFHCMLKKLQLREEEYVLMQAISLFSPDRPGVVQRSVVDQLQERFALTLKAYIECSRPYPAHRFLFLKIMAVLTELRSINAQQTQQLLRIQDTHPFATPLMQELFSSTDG

[2] = molecular target: T2, Nuclear receptor subfamily 1 group I member 3 (Homo sapiens, UniProt Q14994); experiment: Activation of human CAR expressed in rat hepatocytes coexpressing CYP2B1 at 100 uM after 24 hrs by dual luciferase reporter gene assay; format: ADME, cell-based, Hepatocyte
T2 sequence (Q14994 whole entry): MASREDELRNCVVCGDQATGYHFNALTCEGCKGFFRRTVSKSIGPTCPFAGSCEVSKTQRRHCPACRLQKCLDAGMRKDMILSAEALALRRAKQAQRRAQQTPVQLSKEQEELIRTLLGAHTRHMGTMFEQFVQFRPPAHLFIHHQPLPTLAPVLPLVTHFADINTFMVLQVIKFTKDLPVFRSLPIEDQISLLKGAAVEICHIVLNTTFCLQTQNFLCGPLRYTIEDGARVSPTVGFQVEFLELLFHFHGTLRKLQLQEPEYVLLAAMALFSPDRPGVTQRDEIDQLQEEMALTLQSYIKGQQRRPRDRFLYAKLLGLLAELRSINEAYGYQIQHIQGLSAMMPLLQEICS

[3] = molecular target: T2, Nuclear receptor subfamily 1 group I member 3; experiment: Antagonist activity at human CAR expressed in human HepG2 cells coexpressing CYP2B6 assessed as inhibition of CITCO-induced receptor activation up to 100 uM after 24 hrs by dual luciferase reporter gene assay; format: ADME, cell-based; settings: hepg2, 24 h
[4] = molecular target: T1, Nuclear receptor subfamily 1 group I member 2; experiment: Activation of rat PXR expressed in rat hepatocytes coexpressing CYP3A4 at 100 uM after 24 hrs by dual luciferase reporter gene assay; format: ADME, cell-based, Hepatocyte
CAR mRNA [5] = experiment: Effect on CAR mRNA expression in rat hepatocytes at 1 uM by RT-PCR analysis relative to control; format: ADME, cell-based, Hepatocyte; settings: read-out: FC
PXR mRNA [6] = experiment: Effect on PXR mRNA expression in rat hepatocytes at 3 uM by RT-PCR analysis relative to control; format: ADME, cell-based, Hepatocyte; settings: read-out: FC
[7] = molecular target: T3, Nuclear receptor subfamily 1 group I member 3 (Rattus norvegicus, UniProt Q9QUS1); experiment: Activation of CAR in rat hepatocytes assessed as increase in CYP2B-mediated benzyloxyresorufin O-dealkylation at 3 uM after 24 hrs by spectrofluorometric analysis relative to phenobarbital; format: ADME, cell-based, Hepatocyte
T3 sequence (Q9QUS1 whole entry): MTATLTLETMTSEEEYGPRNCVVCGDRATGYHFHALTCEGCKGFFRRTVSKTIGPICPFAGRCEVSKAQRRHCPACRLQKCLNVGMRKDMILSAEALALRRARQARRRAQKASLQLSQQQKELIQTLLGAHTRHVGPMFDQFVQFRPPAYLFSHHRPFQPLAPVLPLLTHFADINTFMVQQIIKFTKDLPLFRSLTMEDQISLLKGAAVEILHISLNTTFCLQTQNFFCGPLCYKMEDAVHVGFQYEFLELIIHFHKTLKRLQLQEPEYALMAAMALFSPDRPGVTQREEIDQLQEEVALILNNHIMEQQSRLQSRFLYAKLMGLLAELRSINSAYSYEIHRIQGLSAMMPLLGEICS

CAR mRNA [8] = experiment: Effect on CAR mRNA expression in human hepatocytes at 50 uM by RT-PCR analysis relative to control; format: ADME, cell-based, Hepatocyte; settings: read-out: FC
[9] = molecular target: T3, Nuclear receptor subfamily 1 group I member 3; experiment: Activation of CAR in rat hepatocytes assessed as effect on CYP2B1 mRNA expression at 1 uM after 24 hrs by RT-PCR analysis; format: ADME, cell-based, Hepatocyte
[10] = molecular target: T1, Nuclear receptor subfamily 1 group I member 2; experiment: Activation of PXR in rat hepatocytes assessed as upregulation of CYP3A23 mRNA expression at 1 to 30 uM after 24 hrs by RT-PCR analysis; format: ADME, cell-based, Hepatocyte
HepG2 = experiment: Cytotoxicity against human HepG2 cells at 1 to 100 uM after 24 hrs by lactate dehydrogenase assay; format: cell-based; settings: hepg2, 24 h
[11] = molecular target: T2, Nuclear receptor subfamily 1 group I member 3; experiment: Activation of CAR in human Hu1043 hepatocytes assessed as effect on CYP2B6 mRNA expression at 10 to 60 uM after 24 hrs by RT-PCR analysis; format: ADME, cell-based, Hepatocyte
CAR mRNA [12] = experiment: Effect on CAR mRNA expression in human hepatocytes at 25 uM by RT-PCR analysis relative to control; format: ADME, cell-based, Hepatocyte; settings: read-out: FC
[13] = molecular target: T2, Nuclear receptor subfamily 1 group I member 3; experiment: Activation of CAR in human Hu1043 hepatocytes assessed as increase in CYP2B6-mediated bupropion hydroxylation at 10 to 60 uM after 24 hrs by LC-MS analysis; format: ADME, cell-based, Hepatocyte
[14] = molecular target: T4, Nuclear receptor subfamily 1 group I member 2 (Homo sapiens, UniProt O75469); experiment: Activation of PXR in human Hu1043 hepatocytes assessed as effect on CYP3A-mediated testosterone 6beta-hydroxylation at 10 to 60 uM after 24 hrs by HPLC analysis; format: ADME, cell-based, Hepatocyte
T4 sequence (O75469 whole entry): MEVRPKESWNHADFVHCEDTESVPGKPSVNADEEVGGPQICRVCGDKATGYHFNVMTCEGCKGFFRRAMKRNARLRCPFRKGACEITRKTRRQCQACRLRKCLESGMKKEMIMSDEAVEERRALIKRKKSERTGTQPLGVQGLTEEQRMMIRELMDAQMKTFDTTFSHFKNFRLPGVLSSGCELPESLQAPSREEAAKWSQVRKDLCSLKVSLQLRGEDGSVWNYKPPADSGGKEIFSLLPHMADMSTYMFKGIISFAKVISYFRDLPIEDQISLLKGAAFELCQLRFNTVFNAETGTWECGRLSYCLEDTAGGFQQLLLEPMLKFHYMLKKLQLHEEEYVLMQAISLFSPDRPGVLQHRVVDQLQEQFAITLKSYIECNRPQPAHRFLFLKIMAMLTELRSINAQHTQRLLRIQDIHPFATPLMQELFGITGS

[15] = molecular target: T3, Nuclear receptor subfamily 1 group I member 3; experiment: Activation of rat CAR expressed in rat hepatocytes coexpressing CYP2B1 at 100 uM after 24 hrs by dual luciferase reporter gene assay relative to control; format: ADME, cell-based, Hepatocyte; settings: hepatocytes, 24 h, 100 µM
[16] = molecular target: T3, Nuclear receptor subfamily 1 group I member 3; experiment: Activation of CAR in rat hepatocytes assessed as upregulation of CYP2B1 mRNA expression at 3 uM after 24 hrs by RT-PCR analysis relative to phenobarbital; format: ADME, cell-based, Hepatocyte
CAR mRNA [17] = experiment: Effect on CAR mRNA expression in human hepatocytes at 10 uM by RT-PCR analysis relative to control; format: ADME, cell-based, Hepatocyte; settings: read-out: FC
PXR mRNA [18] = experiment: Effect on PXR mRNA expression in rat hepatocytes at 10 uM by RT-PCR analysis relative to control; format: ADME, cell-based, Hepatocyte; settings: read-out: FC

CC(C)(C)[C@]1(O)C[C@@H]2OC(=O)C[C@@]23C(=O)O[C@@H]2OC(=O)[C@H](O)[C@]213
Activity [1]: Not Active | Activity [2]: Not Active | inhibition (INH) [3]: Not Active | Activity [4]: Not Active | fold induction at 1 µM (CAR mRNA [5]): 1.3 | fold induction at 3 µM (PXR mRNA [6]): 1 | Activity [7]: 44% | fold induction at 50 µM (CAR mRNA [8]): 1.4 | Activity [9]: Not Active | Activity [10]: Not Active | Activity (HepG2): Non-toxic | Activity [11]: Not Active | fold induction at 25 µM (CAR mRNA [12]): 1.4 | Activity [13]: Not Active | Activity [14]: Not Active | Activity [15]: Active | Activity [16]: 6% | fold induction at 10 µM (CAR mRNA [17]): 1.4 | fold induction at 10 µM (PXR mRNA [18]): 1.4
